The term MIC50 denotes an inhibitory concentration at the 50% level, which refers to growth in some studies and to a panel of isolates in others. As a reminder, the MIC90 is the lowest concentration that inhibits either 90% of growth or 90% of the strains tested, depending on the study. For orientation: Cmax means the peak of the concentration-time curve. Usually MIC stands for the lowest concentration found to suppress growth.

The text below walks through data of ChEMBL document CHEMBL1275538, “In vitro activity of OPT-80 tested against clinical isolates of toxin-producing Clostridium difficile” (Antimicrob Agents Chemother, 2008).

Structures are written as SMILES. Values after ≈ are worked out from the molar mass of the structure shown. Bounds are passed on as bounds.

The subject of data set [1] is Clostridioides difficile. Nature of the data set: Antibacterial activity against toxin-positive Clostridium difficile clinical isolate by agar dilution method. It counts as functional.
Data set [2] deals with Clostridioides difficile. Briefly: Antibacterial activity against toxin-positive Clostridium difficile clinical isolate by agar dilution method in presence of clavulanic acid. It counts as functional. For orientation: In agar dilution, organisms are placed on agar that contains the substance at set levels.
The nature of data set [3]: Cmax in syrian golden hamster serum at 200 mg administered BID after 1.5 hrs. It counts as ADME, organism-based, Mesocricetus auratus. Also on record: dose 200 mg.
In data set [4] the test system is Clostridioides difficile. Nature of the data set: Antibacterial activity against Clostridium difficile by M11-A7 CLSI agar dilution. It counts as functional.
Data set [5] concerns Clostridioides difficile. Nature of the data set: Antibacterial activity against Clostridium difficile by M11-A6 CLSI agar dilution. It counts as functional.
A short description of data set [6]: Apparent elimination half-life in syrian golden hamster at 400 mg/kg. The settings on record: in vivo, read-out: beta t1/2 (converted). Also on record: dose 400 mg/kg. It counts as ADME, organism-based, Mesocricetus auratus.
In data set [7] the test system is Clostridioides difficile. Nature of the data set: Antibacterial activity against Clostridium difficile by broth microdilution method using Wilkins-Chalgren broth. Type of data set: functional. On the technique in general: Broth dilution looks for growth in wells or tubes with falling amounts of substance.
Data set [8] has as its system Clostridioides difficile. Nature of the data set: Antibacterial activity against Clostridium difficile by M11-A5 CLSI agar dilution. It counts as functional.
Data set [9] deals with Clostridioides difficile. Briefly: Antibacterial activity against Clostridium difficile by agar dilution method using Wilkins-Chalgren agar. It counts as functional.
Data set [10] concerns Clostridioides difficile. Briefly: Antibacterial activity against toxin-positive Clostridium difficile clinical isolate by agar dilution method in presence of Tazobactam. Type of data set: functional.
Data set [11] deals with Clostridioides difficile. Nature of the data set: Antibacterial activity against toxin-positive Clostridium difficile clinical isolate assessed as percent of susceptible isolates by agar dilution method. It counts as functional.

In the data set on Clostridioides difficile [1], `C[C@@H](O)[C@H]1C(=O)N2C(C(=O)O)=C(S[C@@H]3CN[C@H](C(=O)N(C)C)C3)[C@H](C)[C@H]12` [MEROPENEM] had an MIC50 of 2 µg/mL (≈ 5.22 µM) and an MIC90 of 2 µg/mL (≈ 5.22 µM).
Consider `CC1(C)S[C@@H]2[C@H](NC(=O)[C@H](N)c3ccc(O)cc3)C(=O)N2[C@H]1C(=O)O` [AMOXICILLIN], for which, in the data set with Clostridioides difficile [2], the MIC50 turned out to be 1 µg/mL and the MIC90 was found to be 1 µg/mL.
On to `CCc1c(Cl)c(O)c(Cl)c(O)c1C(=O)O[C@H]1[C@H](O)[C@H](OC)[C@H](OC/C2=C\C=C\C[C@H](O)/C(C)=C/[C@H](CC)[C@@H](O[C@@H]3OC(C)(C)[C@@H](OC(=O)C(C)C)[C@H](O)[C@@H]3O)/C(C)=C/C(C)=C/C[C@@H]([C@@H](C)O)OC2=O)O[C@@H]1C` [FIDAXOMICIN], for which the highest level in data set [3] (Cmax) was 26.5 ng/mL. In addition, the MIC50 is 0.25 µg/mL (≈ 0.236 µM) with Clostridioides difficile [1]; 0.25 µg/mL (≈ 0.236 µM) against Clostridioides difficile [4]; 0.125 µg/mL (≈ 0.118 µM) with Clostridioides difficile [5]; 0.0019 µg/mL (≈ 0.0018 µM) with Clostridioides difficile [7]; not above 0.016 µg/mL against Clostridioides difficile [8]; 0.25 µg/mL (≈ 0.236 µM) against Clostridioides difficile [9]. For the same molecule, the MIC90 was determined as 0.5 µg/mL (≈ 0.473 µM) against Clostridioides difficile [1]; 0.5 µg/mL (≈ 0.473 µM) in the data set on Clostridioides difficile [4]; 0.125 µg/mL (≈ 0.118 µM) in the data set on Clostridioides difficile [5]; 0.0078 µg/mL (≈ 0.00737 µM) against Clostridioides difficile [7]; 0.125 µg/mL (≈ 0.118 µM) in the data set on Clostridioides difficile [8]; 0.25 µg/mL (≈ 0.236 µM) in the data set with Clostridioides difficile [9]. In data set [6], the half-life was 56.4 min. In the data set with Clostridioides difficile [8], this molecule registered an MIC not above 0.06 µg/mL.
As for `CCN1CCN(C(=O)N[C@@H](C(=O)N[C@@H]2C(=O)N3[C@@H]2SC(C)(C)[C@@H]3C(=O)O)c2ccccc2)C(=O)C1=O` [PIPERACILLIN], in the data set with Clostridioides difficile [10], the MIC50 was determined as 8 µg/mL and the MIC90 is 8 µg/mL.
In the data set on Clostridioides difficile [1], `CO/N=C(\C(=O)N[C@@H]1C(=O)N2C(C(=O)O)=C(CSc3nc(=O)c(O)nn3C)CS[C@H]12)c1csc(N)n1` [CEFTRIAXONE] gave an MIC50 of 32 µg/mL (≈ 57.7 µM) and an MIC90 of 128 µg/mL (≈ 231 µM). In addition, in the data set on Clostridioides difficile [11], the Activity stood at 1%.
Regarding `CO[C@H]1/C=C/O[C@@]2(C)Oc3c(C)c(O)c4c(O)c(c(/C=N/N5CCN(C)CC5)c(O)c4c3C2=O)NC(=O)/C(C)=C\C=C\[C@H](C)[C@H](O)[C@@H](C)[C@@H](O)[C@@H](C)[C@H](OC(C)=O)[C@@H]1C` [RIFAMPIN], in the data set on Clostridioides difficile [1], the MIC50 came out at 0.015 µg/mL (≈ 0.0182 µM) and the MIC90 was determined as 0.015 µg/mL (≈ 0.0182 µM).
In the data set on Clostridioides difficile [1], `CCC[C@@H]1C[C@@H](C(=O)N[C@@H]([C@H]2O[C@H](SC)[C@H](O)[C@@H](O)[C@H]2O)[C@H](C)Cl)N(C)C1` [CLINDAMYCIN] showed an MIC50 of 8 µg/mL (≈ 18.8 µM) and an MIC90 of more than 16 µg/mL. For the same molecule, the Activity with Clostridioides difficile [11] came to 17.3%.
